Measurements from paper PMC7352342, “Inhibition of Patched Drug Efflux Increases Vemurafenib Effectiveness against Resistant Braf^V600E Melanoma” (Cancers, 2020).

Experiments:
[1] = Cytotoxicity assay (neutral red), A375 cells; assay type: cell-based, human; details: human, A375 melanoma cells, A375; 24 or 48 h; read-out: sPAH-IC50 (cytotoxicity of sPAH alone)
Procedure: (§1) Human melanoma cell lines A375 and MeWo were purchased from ATCC, and cultured in DMEM medium supplemented with 10% fetal bovine serum and penicillin/streptomycin (Invitrogen) at 37 °C in a 5% CO2/95% water-saturated air atmosphere. Melanoma cell lines SKMEL 28, SKMEL V3, WM9S, and WM9R were provided by Robert Ballotti (C3M, Nice, France). MeWo-dxrR cells were obtained by adding increasing concentrations of doxorubicin, up to 0.2 µM, in the culture medium over 6 months. These cells were grown in medium supplemented with 0.2 µM dxr. WM9R cells were obtained by adding increasing concentrations of vemurafenib, up to 5 µM, in the culture medium over 6 months. These cells were grown in medium supplemented with 5 µM vemurafenib. HEK cells were grown in 75 mm tissue culture dishes (Falcon, Franklin Lakes, NJ, USA) in Dulbecco’s modified Eagle’s medium (Gibco, Life Technologies, Saint Aubin, France) supplemented with 10% fetal calf serum (Hyclone, Thermo Fisher Scientific GMBH, Ulm, Germany) and 1% penicillin/streptomycin (Gibco, Life Technologies, Saint Aubin, France) in a humidified incubator at 37 °C (5% CO2).
(§2) Cells were seeded in 96-well plates in triplicate and grown in medium to achieve 70 to 80% confluence. Medium was then removed and replaced with 100 µL/well of complete medium containing PAH or DMSO as a control. After 2 h, 100 µL of complete medium containing serial dilutions of dxr, cisplatin or vemurafenib were added. Plates were incubated at 37 °C and 5% CO2. After 24 or 48 h, cells were incubated for 3 h at 37 °C with 100 µL/well neutral red (NR) solution (50 µg/mL in medium) following the manufacturer’s protocol. Measurements were made in microplate readers (Multiskan Go Microplate Spectrophotometer from Thermo Scientific).

A375 cells [2] = assay: Cytotoxicity assay (neutral red), A375 cells; assay type: cell-based, human; details: A375
Procedure: as §1, §2

[3] = Cytotoxicity assay (neutral red), WM9R cells; assay type: cell-based; details: human, WM9R melanoma cells (vemurafenib-resistant); read-out: sPAH-IC50 (cytotoxicity of sPAH alone)
Procedure: as §1
(§3) Cells were seeded in 96-well plates in triplicate and grown in medium to achieve 70 to 80% confluence. […] Measurements were made in microplate readers (Multiskan Go Microplate Spectrophotometer from Thermo Scientific).

WM9R cells [4] = assay: Cytotoxicity assay (neutral red), WM9R cells; assay type: cell-based; details: WM9R; sPAH 20 µM; 24 h
Procedure: as §1, §3

A375 cells [5] = assay: Wound-healing assay, A375 cells; assay type: cell-based, human; details: 48 h after wounding, sPAH added to vemurafenib
Procedure: (§4) Once cells were confluent in 24-well plates, a wound was created using a p200 tip. Two pictures were taken at two different points of each well immediately after wounding, and 48 h after wounding. Images were taken with Leica DM IRB (5×). The width of the wound was measured using ImageJ software and reported as percentage final wound width/initial wound width.

WM9R cells [6] = assay: Wound-healing assay, WM9R cells; assay type: cell-based; details: 48 h after wounding, sPAH added to vemurafenib
Procedure: as §4

[7] = Metabolic stability with mice liver microsomes and NADPH; assay type: in vitro ADME
Procedure: A 10 µL aliquot of the sPAH stock solution (10 mM in DMSO) was diluted in 990 µL of a mixture of acetonitrile and water. This solution was then diluted 100-fold in phosphate buffer containing mice liver microsomes (0.5 mg/mL), 1 mM NADPH, and 3 mM MgCl2, and incubated at 37 °C. After 2, 10, 20, 40, and 60 min, 70 µL aliquots were collected and mixed with 70 µL acetonitrile at 0 °C. Equivalent experiments were performed without NADPH in order to identify chemical instability or enzymatic process not depending on NADPH, and with testosterone as a positive control. The enzymatic reaction was stopped by addition of acetonitrile. Samples were analyzed by LC–MS/MS on an UHPLC LC–MS 8030 (Shimazu, Kyoto, Japan).
For metabolite identification, 50 µM of sPAH were incubated with mice liver microsomes and NADPH. Two samples were prepared: one in which acetonitrile was added immediately (t0) and one in which acetonitrile was added after 30 min. After centrifugation for 5 min at 15,000× g, 2 samples of each supernatant were analyzed by LC–MS/MS on a LC–MS 8030 (Shimazu, Kyoto, Japan) and detected by selected ion monitoring (SIM).

COc1cc(C)c(CC/C(C)=C/Cc2cc(O)ccc2O)c(C)c1C [sPAH, Panicein A hydroquinone]
IC50 [1]: ~40 µM | IC50 (A375 cells [2]; 24 or 48 h, read-out: sPAH-IC50 (cytotoxicity of sPAH alone)): 38.3 ± 6.8 µM | sensitivity of cells to vemurafenib in the presence of sPAH (A375 cells [2]; 24 h, sPAH between 10 and 20 µM): significantly increased | IC50 of cisplatin in the presence of sPAH (A375 cells [2]; sPAH 20 µM vs DMSO (Figure S2)): significantly decreased | IC50 [3]: 41 ± 6.2 µM | change of the IC50 of vemurafenib in the presence of sPAH (WM9R cells [4]): decrease by a factor of ten | effect on vemurafenib efficacy against cell migration (A375 cells [5]): increased vemurafenib efficacy | effect on vemurafenib efficacy against cell migration (WM9R cells [6]): the same effect was observed | metabolic fate (LC-MS/MS) ([7]; 50 µM, mice liver microsomes and NADPH, 30 min): rapidly oxidized in its quinone form | half-life at 1 µM ([7]; mouse, liver microsomes, mice microsomes and NADPH, 37 °C): 1 min
